Columns and labels:
[1] = tested on: traumatic brain injury (TBI); assay: Traumatic brain injury (TBI), GFAP expression by Western blot; conditions: for TBI induced increases in GFAP expression: treatment 30 min post-TBI, ipsilateral brain homogenates and plasma at day 7, vs TBI untreated
Experimental: Mice underwent sham or TBI (on Ipsilateral side of brain) and received treatments as labeled 30 min post-TBI. Plasma was obtained from mice at 7 days post-injury, then sacrificed to obtain brain homogenates from the ipsilateral and contralateral hemispheres (middle third). Western blot analysis were normalized to actin. (A and C) Representative blots are shown for Ipsilateral brain homogenates and the plasma at day 7. (B and D) Data were pooled from 3 distinct experiments (N=number of mice per treatment) and plotted as bar histograms, shown as mean of control+/−SEM. *p<0.05 and ** p<0.01 from TBI untreated (dark gray bar).

astrocytes = assay: Determination of ATP levels in astrocytes (luciferin-luciferase kit), control or GLUD1 shRNA; assay type: cell-based
Experimental: FIG. 7: GLUD1 Knockdown (KD) in astrocytes blocks P2Y1R and A3R-stimulated increases in ATP. A, B) Cells were treated with P2Y1R agonist MRS2365 for 20 mins in either normal glucose medium (A) or a glucose-free, galactose (B) supplemented media. Galactose forces cells to use oxidative phosphorylation for energy metabolism. […] Intracellular ATP levels were measured with a luciferin-luciferase kit.
P2Y1R and A3R agonists increased mitochondrial ATP production in astrocytes in a manner that was dependent on GLUD1 expression. One possible hypothesis is that glutamate catabolism into α-KG is mediated by GLUD1, which is enhanced by Ca^2+ dependent stimulation of the ICDH and α-KGDH in the TCA cycle. To test this hypothesis, GLUD1 expression levels were reduced in astrocyte cultures by incubating cells with specific shRNA. […] We repeated these experiments in the presence of galactose, a carbon source that forces cells to generate ATP though oxidative phosphorylation, since glycolysis of galactose is ATP neutral.
Cells were transduced with shRNA lentivirus constructs obtained from Santa Cruz (glud1 #145446-V, for Scrambled #108080). Cells were then seeded at single cell/well densities in a 96-well dish and selected for with puromycin. Clones were grown and tested for knockdown by western blot.
Astrocytes were plated at a density of 3000-5000 cells/well in a white, opaque-bottom 96-well dish (Corning). If cells were tested in galactose medium, they were seeded in galactose medium, and left for a minimum of 16 hours before subjected to treatment. Galactose medium was made with glucose-, pyruvate-, phenol-, and glutamine-free DMEM (Gibco) which was then supplemented with 0.9 mg/ml galactose (Sigma), pyruvate (Quality biological, Inc), and 10% dialyzed FBS (Gibco). Treatments were performed for 20 min unless otherwise stated and concentrations of drugs described elsewhere. Drugs used: MRS2365, MRS2500, AST-004, 3-Propyl-6-ethyl-5-[(ethylthio)carbonyl]-2 phenyl-4-propyl-3-pyridine carboxylate (MRS1523) (Tocris Bioscience), sodium dichloroacetate (DCA) (Sigma Aldrich), Oligomycin (Sigma Aldrich), 1-(2-(2-tert-Butylphenoxy)pyridin-3-yl)-3-(4-(trifluoromethoxy)phenyl)urea (BPTU) (Millipore), and Ruthenium 360 (Cal Biochem). Next, media was removed from cells, and 100 μl fresh media immediately added. Then, 95 μl of mixed luminescence substrate from the ATPlite 1-Step kit were added (Perkin-Elmer). Plates were wrapped in aluminum foil and shaken for 3 min on a plate rotator before reading on a luminometer. Readings were normalized to protein as determined by Coomassie Plus Bradford assay (Thermo Fisher). All statistics were analyzed using GraphPad Prism software.

[2] = tested on: photothrombosis-induced stroke; assay: Photothrombotic induced model of stroke, lesion volume by TTC staining; assay type: in vivo, mouse
[3] = tested on: astrocytes of transgenic mice expressing the Luciferase-reporter gene (GFAP promoter); assay: In vivo bioluminescent imaging of ATP in astrocytes after blunt TBI; design: species or system mouse; conditions: IP injection, two to 4 days after TBI, vs vehicle
Experimental: FIG. 5: In Vivo Bioluminescent Imaging indicates AST-004 increases ATP. A) Transgenic mice expressing the Luciferase-reporter gene in astrocytes (GFAP promoter) were subjected to blunt TBI (Closed Cortical Impact). Two to 4 days after the initial trauma, mice were IP injected with a synthetic D-luciferin analogue (Cytluc1, 100 ul). Bioluminescent signals were recorded with an IVIS Spectrum Imager, 5 min after Cycluc1 injection (green arrow). Mice were then IP injected with either vehicle or AST-004 at […] (blue arrow), the photon flux immediately measured and then compared to the photon flux at 20 minutes (red arrow).
Transgenic mice expressing the Luciferase-reporter gene in astrocytes (GFAP promoter, Dual-Glo mice, Jackson laboratories) were subjected to blunt TBI (Closed Cortical Impact). Two to 4 days after the initial trauma, mice were IP injected with a synthetic D-luciferin analogue (Cycluc 1) and bioluminescent signals recorded on an IVIS Spectrum Imager (FIG. 5A).

[4] = tested on: cocaine self-administering mice; assay: Cocaine self-administration; assay type: in vivo, mouse; conditions: osmotic minipump, 100 μL at 2.78 mM
Experimental: Data that are normalized to each mouse's individual cocaine intake at baseline. Mice were trained to self-administer cocaine (0.5 mg/kg/infusion) on a fixed ratio 3 schedule in 2-hr daily sessions. After their intake stabilized (baseline) mice were implanted with osmotic minipumps on day 0 either containing saline (filled circles) or the drug AST-004 (open circles), n=5 mice in each group. Mice were given a day off (day 7), then returned to self-administration in daily sessions. Note the number of infusions goes down in the AST-004 treated mice, while saline treated mice increased infusions.
We used procedures adapted from our recently published work that describes i.v. cocaine self-administration in fully fed mice (6, 7). Male C57BL/6J mice (6 to 7-week-old) purchased from Jackson labs and were kept on a 12/12-hour reverse light-dark cycle (lights off at 0900 h) with ad libitum access to food and water. Cocaine hydrochloride (generously provided by the NIDA drug supply program, Bethesda, MD) was dissolved in sterile physiological saline (NaCl 0.9%). Cocaine was prepared at a concentration that delivers 0.5 mg/kg/12 μL per infusion, based on a typical weight of a young adult mouse (28 g). Mice were implanted with an indwelling catheter in the right jugular vein. […]

cultured astrocytes = assay: Ca2+ measurements in dye-loaded (Cal520) cultured astrocytes; assay type: cell-based, mouse
Experimental: FIG. 1: AST-004 increases intracellular Ca^2+ in cultured astrocytes. A) Image of resting Ca^2+ levels in dye-loaded (Cal520) astrocytes. B) Spatio-temporal plot of Ca^2+ fluorescence for the vertical line in panel A. AST-004 was added at 2 min. Note the oscillatory Ca^2+ responses for over 6 minutes. C) Plot of integrated Ca^2+ fluorescence intensities (DF/F0) at the indicated A3R agonist concentrations. Values are mean+/−SEM (data pooled from 3 experiments at each concentration). Images were acquired on the Nikon Sweptfield confocal microscope.
The low level stimulation of Ca2+ release persisted throughout the recording (FIG. 1A,B). It was not blocked by pertussis toxin treatment, consistent with Gq-coupling. The integrated Ca^2+ response was also dose-dependent (FIG. 1C) and present in astrocytes cultured from mouse, rat, pig and human brain tissue.
Protocol was modified from McCarthy et al., 1980 (4). Briefly, mice were anesthetized with isoflurane then cervically dislocated. Brains were quickly removed and chopped in trypsin, and allowed to incubate at 37° C. for 30 mins. DMEM/F-12 Media with 10% FCS and primocin was added and brains were triturated to homogenization and filtered through […] mesh, and seeded into culture flasks. The next day, homogenates were transferred to a new flask, and previous flasks had new media added. Cells were grown for 3-4 weeks, with DMEM/F-12 media changes every 3-4 days until cells were 70% confluent.
Ca^2+ activity was imaged as previously described (5). In brief, astrocytes were seeded on glass cover slips 3 and 4 nights before each experiment. Culture dishes were incubated with a fluorescent Ca^2+ sensitive dye (10 μM, Cal520, cell permeant, Abcam) 30 min prior to the experiment. Images were acquired with a confocal laser-scanning microscope at the rate of 1.5 images/s. Data were obtained in recording buffer (120 mM NaCl, 4.5 mM KCl, 1 mm CaCl2), 2 mM MgCl2, 10 mM HEPES, pH 7.4) at room temperature. Images were analyzed with Image J and NIS Elements.

astrocytes (C8-D1A) = assay: Oxygen consumption rate (OCR), Seahorse; assay type: cell-based
Experimental: FIG. 2: Oxygen Consumption Rate (OCR) is increased by purinergic agonist AST-004. Cultured astrocytes were plated on a standard Seahorse dish (24 well). After establishing basal OCR, purinergic agonist AST-004 or control (antagonist) was added at first arrow. […] The final addition of mitochondrial inhibitors uncovered non-mitochondrial OCR sources.
We previously reported that any agonist stimulating IP3-mediated Ca^2+ increases in astrocytes increased ATP production in astrocytes (1). […] Minimal change was observed under control injections. […] Addition of rotenone and antimycin uncovered non-mitochondrial sources of oxygen consumption, which was subtracted off from all measurements prior to calculations.
OCR was measured to calculate mitochondrial respiration and performed with a Seahorse XF96 extracellular flux analyzer. A 96-well system measures OCR from a monolayer of cultured intact cells, at intervals of ˜5 minutes. Astrocytes were plated on Seahorse microplates at least 2 days prior to OCR measurements. […] Injection of rotenone and antimycin, inhibitors of complex I and III respectively, uncover non-mitochondrial oxygen consumption.

[5] = 20 min treatment, normal glucose medium

## CSc1nc(N)c2ncn([C@H]3[C@H](O)[C@H](O)[C@]4(COP(=O)(O)OP(=O)(O)O)C[C@H]34)c2n1 [MRS2365]
[1]
  TBI induced increases in GFAP expression: reduced
astrocytes; 20 min treatment, glucose-free, galactose supplemented media
  ATP levels, control cells (scrambled shRNA), galactose medium: significantly increased
astrocytes; [5]
  ATP levels, astrocytes with reduced levels of GLUD1 (GLUD1 shRNA): not responsive
  ATP levels, control cells (scrambled shRNA): significantly increased
astrocytes; in the presence of galactose
  ATP levels, astrocytes with reduced GLUD1 levels, galactose medium: similarly non-responsive

## CCCOC(=O)c1c(-c2ccccc2)nc(CC)c(C(=O)SCC)c1CCC [MRS1523, 3-Propyl-6-ethyl-5-[(ethylthio)carbonyl]-2 phenyl-4-propyl-3-pyridine carboxylate, reference compound]
[2]; pretreatment with the A3R antagonist
  reduction of stroke infarction volume by AST-004 after antagonist pretreatment: blocked

## CSc1nc(N)c2ncn([C@H]3[C@H](O)[C@H](O)[C@]4(CO)C[C@H]34)c2n1 [AST-004]
[3]
  photon flux levels (ATP-production in astrocytes): significantly higher
[4]; FR3, 2-hr daily sessions, vs saline
  cocaine self-administration: significantly reduces
[4]; over 2 weeks, n=5
  cocaine intake normalized to baseline: approximately 60 % of baseline
[2]; 0.2 mg/kg, intraperitoneally within 30 min post stroke, 24 hours post-stroke, vs vehicle
  stroke infarction volume: significantly reduced
Cultured astrocytes; astrocytes cultured from mouse, rat, pig and human brain tissue
  integrated Ca2+ response: dose-dependent
Cultured astrocytes; cultured astrocytes, Cal520 dye
  intracellular Ca2+: stimulates intracellular Ca2+
Cultured astrocytes; pertussis toxin treatment, consistent with Gq-coupling
  stimulation of Ca2+ release under pertussis toxin treatment: not blocked
[1]; mice
  neuroprotection after traumatic brain injury (TBI): neuroprotective
[1]
  TBI induced increases in GFAP expression: reduced
Astrocytes (C8-D1A); 400 nM
  ATP production (OCR revealed by oligomycin): significantly greater
Astrocytes (C8-D1A); after addition to the bath at 15 minutes, vs control injections
  basal respiration (OCR): increased
Astrocytes (C8-D1A); uncoupling by FCCP
  maximal respiration (OCR after FCCP): significantly higher
astrocytes; [5]
  ATP levels, control cells (scrambled shRNA): increased ATP levels in a GLUD1-dependent manner

From patent US11839615B2, “Compounds and methods for treating addiction and related disorders” (Astrocyte Pharmaceuticals, Inc., priority 2018, dated 2023)
